Measurements as given in US20250057960A1, “OLIGOSACCHARIDE COMPLEXES AND USES” (BioNTech SE, priority 2021, published 2025).

Experiments:
hPBMCs = assay: Secretion of pro-inflammatory cytokines and chemokines in hPBMCs after transfection with modRNA formulations (Example 10); type: cell-based, human; conditions: incorporated into cationic oligosaccharide (JLF218)+Tween40 modRNA complex, 1:0.5:0.5 molar ratio, N/P6; 24 hours after transfection; FIGS. 10A to 10D
Excerpt: The present example provides complexes comprising a third component which can inhibit the immune response against the expressed protein from the delivered RNA, avoiding pro-inflammatory signals that can hamper the therapeutic effect of RNA-therapy. In the present experiment, a TLR4 inhibitor molecule, TAK-242, was used alone or together with a wide spectrum immunosuppressor, dexamethasone, in combination with cationic oligosaccharides described herein+Tween40 to formulate modRNA encoding for luciferase.
In the first part of the experiment, secretion of pro-inflammatory cytokines in hPBMCs was evaluated for two different cationic oligosaccharides: JLF218 and PRX093, whereas different combinations including TAK-242 and/or Dexamethasone are tested. […] IL-6, TNF-α, IL-1β, IFN-γ, MIP-1β, IP-10 and MCP-1 secretion after 24 hours of transfection of 5×105 hPMBCs was evaluated in the supernatants using MSD Kit Standard Protocol. Primary human hepatocytes were transfected with a dose variation between 0.01-1 μg of modRNA and luciferase expression is evaluated over the course of 6 days.
FIG. 10A is a scatter plot illustrating quantified IL-6 secretion in hPBMCs upon exposure to different doses of tested formulations. FIG. 10B is a scatter plot illustrating quantified TNF-α secretion in hPBMCs upon exposure to different doses of tested formulations. […]

human PBMCs = assay: Pro-inflammatory cytokine secretion in human PBMCs with alternative TLR inhibitors (Example 14); type: cell-based; conditions: in JLF218+Tween40+TL2-C29 (1:0.5:0.5) modRNA formulation, N/P6; 24 hours after transfection
Method: The present example evaluated the impact of different TLR inhibitors. Pro-inflamatory cytokine secretion in human PBMCs was evaluated for two different oligosaccharide formulations (JLF218 and JLF244) in combination with either TAK-242 or TL2-C29. Six formulations were tested, as illustrated in table below: […]
All formulations were complexed with modRNA (coding for firefly luciferase) formulated at N/P6. Formulations were complexed in MBG Buffer (final concentration 5% w/v Glucose, 10 mM MES, pH 6.1), at RNA final concentration of 0.15 mg/mL and the mixing ratio of the RNA containing solution and the oligosccharide+Tween40 (+TAK-242 or TL2-C29 as indicated) containing solution was 9:1 (v:v) for all the cases.
IL-6, TNFα, IL1b, IFNg, MIP1b, IP10 and MCP1 secretion was evaluated 24 hours after transfection of 1e^6 human PMBCs in supernatant using the MSD Kit Standard Protocol. Cell viability was evaluated using a XTT Standard Assay. In the following figures, C29 refers to TL2-C29. FIG. 12A is a plot illustrating IL-6 secretion of human PBMCs (hPMBCs) for different doses of tested formulations. FIG. 12B is a plot illustrating TNFa secretion of hPBMCs for different doses of tested formulations. FIG. 12C is a plot illustrating IL1b secretion of hPBMCs for different doses of tested formulations. […]

## CCOC(=O)C1=CCCC[C@H]1S(=O)(=O)Nc1ccc(F)cc1Cl [TAK-242]
hPBMCs
  secretion of pro-inflammatory cytokines (IL-6, TNF-α, IL-1β, IFN-γ): reduction of pro-inflammatory cytokines

## COc1cccc(/C=N/c2cccc(C(=O)O)c2C)c1O [TL2-C29]
Human PBMCs
  secretion of pro-inflammatory cytokines: able to inhibit
